# Patent publication US20040102622A1, “Modulation of hepatocyte growth factor receptor expression” (Isis Pharmaceuticals Inc., priority 2002, published 2004)
# System: human hepatocyte growth factor receptor mRNA
row,Substance,inhibition of human hepatocyte growth factor receptor expression
1,"ISIS 209528: 2′-MOE gapmer, phosphorothioate backbone, sequence ttgggaaaaccttgtagatt (antisense TTGGGAAAACCTTGTAGATT; all phosphorothioate, sugars by position and methylation of C not given here; 2'-MOE gapmer)",at least 35%
2,"ISIS 209534: 2′-MOE gapmer, phosphorothioate backbone, sequence agcattacttcatataaggg (antisense AGCATTACTTCATATAAGGG; all phosphorothioate, sugars by position and methylation of C not given here; 2'-MOE gapmer)",at least 35%
3,"ISIS 155125: 2′-MOE gapmer, phosphorothioate backbone, sequence ggaaactgatcttctggaaa (antisense GGAAACTGATCTTCTGGAAA; all phosphorothioate, sugars by position and methylation of C not given here; 2'-MOE gapmer)",at least 35%
4,"ISIS 209535: 2′-MOE gapmer, phosphorothioate backbone, sequence ataacaatacaagtcctatg (antisense ATAACAATACAAGTCCTATG; all phosphorothioate, sugars by position and methylation of C not given here; 2'-MOE gapmer)",at least 35%
5,"ISIS 209549: 2′-MOE gapmer, phosphorothioate backbone, sequence cctgagcattactatctctt (antisense CCTGAGCATTACTATCTCTT; all phosphorothioate, sugars by position and methylation of C not given here; 2'-MOE gapmer)",at least 35%
6,"ISIS 155098: 2′-MOE gapmer, phosphorothioate backbone, sequence tcagaagtgtcctattaaag (antisense TCAGAAGTGTCCTATTAAAG; all phosphorothioate, sugars by position and methylation of C not given here; 2'-MOE gapmer)",at least 35%
7,"ISIS 155117: 2′-MOE gapmer, phosphorothioate backbone, sequence gtagattgcaggcagacaga (antisense GTAGATTGCAGGCAGACAGA; all phosphorothioate, sugars by position and methylation of C not given here; 2'-MOE gapmer)",at least 35%
8,"ISIS 155114: 2′-MOE gapmer, phosphorothioate backbone, sequence aattgttgctttcaaaggca (antisense AATTGTTGCTTTCAAAGGCA; all phosphorothioate, sugars by position and methylation of C not given here; 2'-MOE gapmer)",at least 35%
9,"ISIS 209543: 2′-MOE gapmer, phosphorothioate backbone, sequence gatgccaccgtgcactgtgc (antisense GATGCCACCGTGCACTGTGC; all phosphorothioate, sugars by position and methylation of C not given here; 2'-MOE gapmer)",at least 35%
10,"ISIS 155132: 2′-MOE gapmer, phosphorothioate backbone, sequence gattccctcggtcagaaatt (antisense GATTCCCTCGGTCAGAAATT; all phosphorothioate, sugars by position and methylation of C not given here; 2'-MOE gapmer)",at least 35%
